According to ChEMBL document CHEMBL1129269, “1-aryl-4-[(1-tetralinyl)alkyl]piperazines: alkylamido and alkylamino derivatives. Synthesis, 5-HT1A receptor affinity, and selectivity. 3” (J Med Chem, 1996):

Experiments:
[1] = biological target: T1, 5-hydroxytryptamine receptor 1A (Rattus norvegicus, UniProt P19327); test: Binding affinity against 5-hydroxytryptamine 1A receptor in rat hippocampus membranes using [3H]8-OH-DPAT as radioligand; assay type: cell membranes, Membrane
T1 sequence (P19327 whole entry): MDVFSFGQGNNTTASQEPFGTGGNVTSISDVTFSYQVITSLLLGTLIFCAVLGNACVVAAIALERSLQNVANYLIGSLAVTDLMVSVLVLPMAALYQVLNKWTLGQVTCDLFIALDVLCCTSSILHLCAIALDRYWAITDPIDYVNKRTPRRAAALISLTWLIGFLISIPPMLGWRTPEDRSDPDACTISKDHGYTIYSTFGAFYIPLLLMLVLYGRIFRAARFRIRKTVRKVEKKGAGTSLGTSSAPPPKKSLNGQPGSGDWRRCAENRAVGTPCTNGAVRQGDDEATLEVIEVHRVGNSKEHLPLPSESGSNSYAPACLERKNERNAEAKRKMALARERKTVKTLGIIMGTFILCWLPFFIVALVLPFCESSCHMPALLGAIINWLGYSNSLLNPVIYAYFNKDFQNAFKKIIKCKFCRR

[2] = biological target: Serotonin 2 (5-HT2) receptor (Rattus norvegicus, UniProt P30994+P08909+P14842); test: Binding affinity against 5-hydroxytryptamine 2 receptor in rat brain using [3H]ketanserin as radioligand; assay type: tissue-based
[3] = biological target: T2, Adrenergic receptor alpha-2 (Rattus norvegicus, UniProt P22086+P19328+P22909); test: Binding affinity against Alpha-2 adrenergic receptor in rat brain membrane using [3H]yohimbine as radioligand; assay type: cell membranes
T2 sequence (P22086 whole entry): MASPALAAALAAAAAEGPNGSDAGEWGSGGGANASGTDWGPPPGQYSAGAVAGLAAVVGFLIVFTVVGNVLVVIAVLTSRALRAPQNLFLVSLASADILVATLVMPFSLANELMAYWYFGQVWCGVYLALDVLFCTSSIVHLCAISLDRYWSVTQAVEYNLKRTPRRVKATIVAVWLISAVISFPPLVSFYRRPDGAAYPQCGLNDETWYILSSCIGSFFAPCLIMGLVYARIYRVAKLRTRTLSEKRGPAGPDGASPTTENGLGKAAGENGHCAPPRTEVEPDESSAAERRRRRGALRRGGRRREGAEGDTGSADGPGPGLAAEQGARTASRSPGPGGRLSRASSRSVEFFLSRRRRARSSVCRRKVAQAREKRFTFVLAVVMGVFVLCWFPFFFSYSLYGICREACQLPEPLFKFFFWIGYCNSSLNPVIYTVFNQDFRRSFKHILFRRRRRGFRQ
T2 sequence (P19328 whole entry): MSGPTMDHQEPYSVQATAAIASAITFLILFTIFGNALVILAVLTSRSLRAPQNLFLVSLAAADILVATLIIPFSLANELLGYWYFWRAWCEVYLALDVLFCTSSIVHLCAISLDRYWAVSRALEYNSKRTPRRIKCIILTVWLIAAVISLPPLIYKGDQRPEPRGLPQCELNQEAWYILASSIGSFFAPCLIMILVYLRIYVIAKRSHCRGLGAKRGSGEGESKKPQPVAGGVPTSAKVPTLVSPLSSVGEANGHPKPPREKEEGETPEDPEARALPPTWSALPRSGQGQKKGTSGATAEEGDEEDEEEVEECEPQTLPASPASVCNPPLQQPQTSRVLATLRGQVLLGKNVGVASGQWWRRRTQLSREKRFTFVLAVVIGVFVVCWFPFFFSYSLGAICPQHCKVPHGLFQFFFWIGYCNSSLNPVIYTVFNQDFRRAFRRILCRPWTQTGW
T2 sequence (P22909 whole entry): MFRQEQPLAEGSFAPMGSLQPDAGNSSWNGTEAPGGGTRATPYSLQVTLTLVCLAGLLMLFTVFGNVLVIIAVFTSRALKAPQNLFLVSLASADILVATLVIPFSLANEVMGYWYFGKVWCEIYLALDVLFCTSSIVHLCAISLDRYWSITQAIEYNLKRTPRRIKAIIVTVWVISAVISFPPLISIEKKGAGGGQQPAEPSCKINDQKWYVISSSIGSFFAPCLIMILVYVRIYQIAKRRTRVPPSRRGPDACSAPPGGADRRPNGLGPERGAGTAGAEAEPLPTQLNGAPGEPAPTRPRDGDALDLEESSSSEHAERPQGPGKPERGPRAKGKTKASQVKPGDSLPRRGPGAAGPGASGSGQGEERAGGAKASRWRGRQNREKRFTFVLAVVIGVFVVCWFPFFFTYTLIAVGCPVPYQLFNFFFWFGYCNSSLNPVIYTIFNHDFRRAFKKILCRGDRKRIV

[4] = biological target: T3, Adrenergic receptor alpha-1 (Rattus norvegicus, UniProt P15823+P23944+P43140); test: Binding affinity against Alpha-1 adrenergic receptor in rat brain membrane using [3H]prazosin as radioligand; assay type: cell membranes
T3 sequence (P15823 whole entry): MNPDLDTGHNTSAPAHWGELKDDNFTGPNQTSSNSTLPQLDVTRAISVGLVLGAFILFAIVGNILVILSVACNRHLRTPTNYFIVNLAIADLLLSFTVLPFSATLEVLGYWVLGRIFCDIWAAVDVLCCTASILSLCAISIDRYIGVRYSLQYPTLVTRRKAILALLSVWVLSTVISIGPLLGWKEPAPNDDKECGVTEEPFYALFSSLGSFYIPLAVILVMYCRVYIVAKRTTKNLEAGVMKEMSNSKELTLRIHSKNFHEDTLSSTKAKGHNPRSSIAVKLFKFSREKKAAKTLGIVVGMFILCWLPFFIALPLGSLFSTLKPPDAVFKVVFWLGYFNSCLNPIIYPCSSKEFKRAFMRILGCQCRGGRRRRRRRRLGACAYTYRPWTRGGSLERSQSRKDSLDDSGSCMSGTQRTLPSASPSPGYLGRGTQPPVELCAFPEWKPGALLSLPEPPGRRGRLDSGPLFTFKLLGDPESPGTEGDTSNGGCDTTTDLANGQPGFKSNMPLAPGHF
T3 sequence (P23944 whole entry): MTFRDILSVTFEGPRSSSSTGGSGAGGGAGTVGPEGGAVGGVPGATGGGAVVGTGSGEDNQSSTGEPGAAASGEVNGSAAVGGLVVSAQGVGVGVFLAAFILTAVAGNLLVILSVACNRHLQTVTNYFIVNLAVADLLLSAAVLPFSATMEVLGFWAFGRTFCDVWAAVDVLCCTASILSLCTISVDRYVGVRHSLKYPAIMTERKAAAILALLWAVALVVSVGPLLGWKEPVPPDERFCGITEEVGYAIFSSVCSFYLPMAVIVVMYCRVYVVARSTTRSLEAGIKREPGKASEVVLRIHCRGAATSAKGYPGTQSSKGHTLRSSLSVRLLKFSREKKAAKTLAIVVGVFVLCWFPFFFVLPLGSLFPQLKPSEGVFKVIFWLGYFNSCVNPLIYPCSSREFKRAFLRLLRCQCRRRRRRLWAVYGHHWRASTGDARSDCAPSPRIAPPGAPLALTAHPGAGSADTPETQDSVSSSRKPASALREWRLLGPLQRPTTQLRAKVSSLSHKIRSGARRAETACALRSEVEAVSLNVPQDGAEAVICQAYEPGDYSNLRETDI
T3 sequence (P43140 whole entry): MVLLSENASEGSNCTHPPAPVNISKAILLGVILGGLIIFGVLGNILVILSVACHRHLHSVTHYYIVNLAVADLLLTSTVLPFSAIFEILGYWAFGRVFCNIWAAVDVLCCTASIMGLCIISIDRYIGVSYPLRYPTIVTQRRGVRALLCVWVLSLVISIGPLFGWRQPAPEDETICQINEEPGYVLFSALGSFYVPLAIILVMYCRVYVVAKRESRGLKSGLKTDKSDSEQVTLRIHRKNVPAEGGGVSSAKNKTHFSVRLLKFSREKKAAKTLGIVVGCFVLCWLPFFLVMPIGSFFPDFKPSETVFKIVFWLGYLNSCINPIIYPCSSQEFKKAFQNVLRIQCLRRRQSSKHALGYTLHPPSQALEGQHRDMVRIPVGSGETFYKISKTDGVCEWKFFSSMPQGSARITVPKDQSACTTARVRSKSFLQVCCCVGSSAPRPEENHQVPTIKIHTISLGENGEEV

D(2) dopamine receptor = D(2) dopamine receptor (Rattus norvegicus, UniProt P61169); test: Compound was evaluated for their affinity against Dopamine receptor D2 by displacing [3H]spiperone in rat striatal membrane; assay type: cell membranes, Striatum
D(2) dopamine receptor, sequence (P61169 whole entry): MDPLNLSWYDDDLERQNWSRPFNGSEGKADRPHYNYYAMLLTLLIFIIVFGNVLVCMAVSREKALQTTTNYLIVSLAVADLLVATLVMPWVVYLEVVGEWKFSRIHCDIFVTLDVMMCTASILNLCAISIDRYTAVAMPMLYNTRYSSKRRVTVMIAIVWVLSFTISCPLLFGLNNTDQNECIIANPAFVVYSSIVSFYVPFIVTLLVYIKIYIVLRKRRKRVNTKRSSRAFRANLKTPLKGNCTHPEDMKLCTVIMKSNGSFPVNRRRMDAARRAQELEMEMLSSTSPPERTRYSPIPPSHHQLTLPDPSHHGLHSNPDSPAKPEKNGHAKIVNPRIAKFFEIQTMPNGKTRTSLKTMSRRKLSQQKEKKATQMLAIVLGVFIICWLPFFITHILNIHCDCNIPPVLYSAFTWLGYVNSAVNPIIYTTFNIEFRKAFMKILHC

COc1ccccc1N1CCN(CCNC2CCCc3c(OC)cccc32)CC1 (stereo not given)
IC50 [1]: 7.7 nM | IC50 [2]: 2580 nM | IC50 [3]: 280 nM | IC50 [4]: 220 nM | IC50 (D(2) dopamine receptor): 380 nM
